Measured values taken from US5198427A, “Natural intense sweeteners” (Research Corporation Technologies, Inc., priority 1990, dated 1993).
Like-named read-outs stand apart in the source and are kept apart here.

Legend:
[1] = Acute toxicity in mice, single oral dose; type: in vivo, male Swiss-Webster mice; settings: for Average body weight of test animals, Day 0 / Average body weight of test animals, Day 1 / Average body weight of test animals, Day 3 / Average body weight of test animals, Day 7 / Average body weight of test animals, Day 14: 1 g/kg oral intubation; for Average body weight of test animals, Day 0: day 0 (prior to administration); for t (body weight, test vs control), Day 0 / t (body weight, test vs control), Day 1 / t (body weight, test vs control), Day 3 / t (body weight, test vs control), Day 7 / t (body weight, test vs control), Day 14: 1 g/kg oral, 0.95 confidence
Protocol: The sweet isolates, abrusosides A-D, are each tested for acute toxicity in mice. Experiments are carried out with male Swiss-Webster mice (6-8 weeks old), that are housed in temperature-controlled rooms with a 12-hr light/dark cycle, and allowed free access to water and food. After acclimatization for three days, groups of 10 animals receive a single 1 g/kg body weight dose of either abrusoside A, B, C, or D by oral intubation. Test materials are suspended in 1% aqueous sodium carboxymethylcellulose. A control group treated with only 1% sodium caroboxymethylcellulose is also included in the experiment. In all experiments, no incidence of mortality occurred for up to 14 days after dosing. Animals are examined for body weight variations on days 0 (prior to administration), 1, 3, 7, and 14. Body weight variations between treated and control groups are analyzed by one-way analysis of variance using an appropriate computer program. It may be seen from these tables that no significant differences in body weight variation occurred between each of the four test compounds and the controls, when assessed for a fourteen day period following compound administration.

[2] = test system: Salmonella typhimurium strain TM677; type: cell-based; settings: DMSO
Protocol: Salmonella typhimurium strain TM677, carrying the "R-factor" plasmid pKM101, is used for the assessment of mutagenic activity. Mutagenic assays are conducted on abrusosides A, B, C, and D, both in the absence and presence of a metabolic activating agent, obtained from a 9,000 × g supernatant fraction from the livers of […] rats. The following protocols are used in this procedure.
Male Sprague-Dawley rats (body weight 100-120 g) were housed in air-conditioned quarters, with a 12 hr/12 hr light-dark cycle, and are given food and water ad libitum. The rats (groups of 10) are given single intraperitoneal injections of Aroclor 1254 (400 mg/kg) in corn oil. Four days after the treatment with Aroclor 1254, the rats are sacrificed by decapitation. Their livers are immediately excised, rinsed several times with cold 0.14 M NaCl, minced, and homogenized with 3 volumes (v/w) of 50 mM Tris HCl, pH 5, containing 0.14 M KCl, using a glass homogenizing vessel and a motor-driven Teflon pestle. The homogenate is filtered through cheese-cloth, and centrifuged at 9,000 g for 20 minutes to yield an S-9 fraction. The isolation procedures described above are conducted at 0°-4° C., and the isolated S-9 fraction is stored in small aliquots in liquid nitrogen.
Duplicate 0.98-ml reaction mixtures containing 0.1 mg of NADP^+, 1.0 mg of glucose-6-phosphate, 0.8 units of glucose-6-phosphate dehydrogenase, 0.67 mg of MgCl2, the S-9 fraction, and approximately 7×10^6 bacteria in logarithmic phase, are prepared in minimal essential medium. When metabolic activation is not required, only bacteria and minimal essential medium are mixed.
After addition of each test substance dissolved in 20 ul of DMSO, the mixtures are slowly rotated at 37° C. for 2 hours. Each reaction mixture is then quenched by addition of 4 ml phosphate-buffered saline. The bacteria are recovered by centrifugation, resuspended, diluted as appropriate, and plated, in triplicate, in the presence or absence of 8-azaguanine. Plates are scored […] on plates containing 8-azaguanine divided by the average number of plates not containing azaguanine, after correcting for dilution factors. The latter value is used to define the percentage of bacteria surviving the treatment, relative to a control in which only an equivalent amount of solvent had been added.
The spontaneous mutant fraction for this assay is 7.4±5×10^-5 (n=145). A compound is said to cause significant mutation if the induced mutant fraction is greater than or equal to two times the spontaneous mutant fraction.

[3] = Sensory evaluation by human taste panel; settings: for Sweetness relative to a 2% aqueous solution of sucrose: ammonium salts, in water, human taste panel; for Sweetness relative to 2% sucrose: three-person panel, dilute ammonium hydroxide solution diluted with water
Protocol: Abrusoside A (4 mg) is dissolved in 0.033N ammonium hydroxide solution (0.2 ml), to which is added 1.8 ml of water to yield the equivalent of a 0.2 % w/v solution of abrusoside A. Aliquots (0.2 ml) of this solution are diluted with 0.4, 0.8, 1.3, and 1.8 ml water, respectively. The diluted solutions is tasted sequentially, in order to judge the intensity of sweetness equivalent to that of a 2% w/v aqueous sucrose solution. Similar procedures are used in the sensory evaluation of […], expect that the concentrations of the ammonium hydroxide solutions used are 0.05N for abrusosides B and C, and 0.025N for abrusoside D. These sensory experiments are performed by a small panel consisting of three persons.

[4] = cited from earlier work
[5] = 2.5 mg/ml, activating system none
[6] = 5.0 mg/ml, activating system none

Row | Compound | Average body weight of test animals, Day 0 [1] | Average body weight of test animals, Day 1 [1] | Average body weight of test animals, Day 3 [1] | Average body weight of test animals, Day 7 [1] | Average body weight of test animals, Day 14 [1] | t (body weight, test vs control), Day 0 [1] | t (body weight, test vs control), Day 1 [1] | t (body weight, test vs control), Day 3 [1] | t (body weight, test vs control), Day 7 [1] | t (body weight, test vs control), Day 14 [1] | % Survival ([2]; 2.5 mg/ml, Aroclor S-9) | Mutant Fraction ([2]; 2.5 mg/ml, Aroclor S-9) | % Survival [2, 5] | Mutant Fraction [2, 5] | % Survival ([2]; 5.0 mg/ml, Aroclor S-9) | Mutant Fraction ([2]; 5.0 mg/ml, Aroclor S-9) | % Survival [2, 6] | Mutant Fraction [2, 6] | Sweetness relative to a 2% aqueous solution of sucrose [3] | Sweetness relative to 2% sucrose [3] | further results
1 | CC1=CC[C@@H]([C@@H](C)[C@H]2CC[C@@]3(C)[C@@H]4CC[C@H]5[C@](C)(C(=O)O)[C@@H](O[C@@H]6O[C@H](CO)[C@@H](O)[C@H](O)[C@H]6O)CC[C@@]56C[C@@]46CC[C@]23C)OC1=O [Abrusoside A] | 23.4 g | 23.7 g | 24.4 g | 25.4 g | 26.1 g | 0.292 | 0.153 | 0.368 | 0.000 | 0.000 | 100% | 8.1 × 10^5 | 100% | 7.9 × 10^5 | 100% | 7.3 × 10^5 | 100% | 8.1 × 10^5 | 30 x | 30 times | –
2 | COC(=O)[C@H]1O[C@@H](O[C@H]2[C@H](O[C@H]3CC[C@]45C[C@]46CC[C@]4(C)[C@@H]([C@H](C)[C@@H]7CC=C(C)C(=O)O7)CC[C@@]4(C)[C@@H]6CC[C@H]5[C@]3(C)C(=O)O)O[C@H](CO)[C@@H](O)[C@@H]2O)[C@H](O)[C@@H](O)[C@@H]1O [Abrusoside B] | 23.5 g | 23.7 g | 23.9 g | 25.0 g | 26.4 g | 0.432 | 0.330 | 0.458 | 0.576 | 0.282 | 100% | 7.2 × 10^5 | 100% | 8.7 × 10^5 | 100% | 8.2 × 10^5 | 100% | 7.3 × 10^5 | 100 x | 100 times | –
3 | CC1=CC[C@@H]([C@@H](C)[C@H]2CC[C@@]3(C)[C@@H]4CC[C@H]5[C@](C)(C(=O)O)[C@@H](O[C@@H]6O[C@H](CO)[C@@H](O)[C@H](O)[C@H]6O[C@@H]6O[C@H](CO)[C@@H](O)[C@H](O)[C@H]6O)CC[C@@]56C[C@@]46CC[C@]23C)OC1=O [Abrusoside C] | 23.4 g | 23.8 g | 24.3 g | 25.3 g | 26.9 g | 0.282 | 0.371 | 0.302 | 0.129 | 0.930 | 100% | 7.7 × 10^5 | 100% | 8.1 × 10^5 | 100% | 6.7 × 10^5 | 100% | 7.6 × 10^5 | 50 x | 50 times | –
4 | CC1(C)[C@@H](O[C@H]2O[C@H](C(=O)O)[C@@H](O)[C@H](O)[C@H]2O[C@@H]2O[C@H](C(=O)O)[C@@H](O)[C@H](O)[C@H]2O)CC[C@]2(C)[C@H]3C(=O)C=C4[C@@H]5C[C@@](C)(C(=O)O)CC[C@]5(C)CC[C@@]4(C)[C@]3(C)CC[C@@H]12 [Glycyrrhizin] | – | – | – | – | – | – | – | – | – | – | – | – | – | – | – | – | – | – | – | – | Retention of sodium, chlorine and water ([4]; humans): can cause abnormal retention of sodium, chlorine and water in humans; Adrenocorticomimetic activity ([4]; mimics the effects of the adrenal cortex): known adrenocorticomimetic activity
5 | Abrusoside D | 24.1 g | 24.4 g | 24.9 g | 25.7 g | 27.0 g | 1.199 | 1.140 | 0.991 | 0.383 | 0.812 | 100% | 11.8 × 10^5 | 100% | 16.7 × 10^5 | 100% | 11.0 × 10^5 | 100% | 15.3 × 10^5 | 75 x | 75 times | Duration of lingering sweetness ([3]; 0.04% w/v): about 30 minutes
